Test results published in ChEMBL document CHEMBL1148059, “Isolation and structure elucidation of new nitrile and mustard oil glycosides from Moringa oleifera and their effect on blood pressure” (1994).
Calls of active or inactive are those of the source. No cut-off for these calls is given here.

Legend:
Rattus norvegicus [1] = experiment: Hypotensive activity against normotensive anesthetized Wistar rat assessed as reduction in mean arterial blood pressure up to 5 mg/kg, iv
Rattus norvegicus [2] = experiment: Hypotensive activity against normotensive anesthetized Wistar rat assessed as reduction in mean arterial blood pressure at 1 ug/kg, iv; format: functional; design: scale not given: the % may be the effect or the level left
Rattus norvegicus [3] = experiment: Hypotensive activity against normotensive anesthetized Wistar rat assessed as reduction in mean arterial blood pressure at 3 ug/kg, iv; format: functional; design: scale not given: the % may be the effect or the level left
Rattus norvegicus [4] = experiment: Hypotensive activity against normotensive anesthetized Wistar rat assessed as reduction in mean arterial blood pressure up to 5 ug/kg, iv; format: functional, organism-based
Rattus norvegicus [5] = experiment: Hypotensive activity against normotensive anesthetized Wistar rat assessed as reduction in mean arterial blood pressure at 3 mg/kg, iv; design: scale not given: the % may be the effect or the level left

C[C@@H]1O[C@@H](Oc2ccc(CC#N)cc2)[C@H](O)[C@H](O)[C@H]1O
Activity (Rattus norvegicus [1]): inactive

CC(=O)OCC[N+](C)(C)C [ACETYLCHOLINE]
Activity (Rattus norvegicus [2]): 59.5%

CCOC(=S)NCc1ccc(O[C@@H]2O[C@@H](C)[C@H](OC(C)=O)[C@@H](O)[C@H]2O)cc1 [listing 1 of 3 here]
Activity (Rattus norvegicus [3]): 40.33%

CCOC(=S)NCc1ccc(O[C@@H]2O[C@@H](C)[C@H](OC(C)=O)[C@@H](O)[C@H]2O)cc1 [listing 2 of 3 here]
Activity (Rattus norvegicus [3]): 37.51%

CCOC(=S)NCc1ccc(O[C@@H]2O[C@@H](C)[C@H](OC(C)=O)[C@@H](O)[C@H]2O)cc1 [listing 3 of 3 here]
Activity (Rattus norvegicus [4]): Active

CC(=O)O[C@@H]1[C@@H](O)[C@@H](O)[C@H](Oc2ccc(CN=C=S)cc2)O[C@H]1C
Activity (Rattus norvegicus [1]): Active | Activity (Rattus norvegicus [5]): 34.91%

CC(=O)O[C@@H]1[C@@H](O)[C@@H](O)[C@H](Oc2ccc(CC#N)cc2)O[C@H]1C
Activity (Rattus norvegicus [1]): inactive
